Assays:
Fms1 [1] = molecular target: T1, Fms1 (Saccharomyces cerevisiae, UniProt P50264); assay: Fms1 cleavage of (R)- or (S)-MeSpd with or without aromatic aldehyde (E1/E2 velocities); assay type: biochemical, yeast; set-up: made in house
Fms1 [2] = molecular target: T1, Fms1; assay: as above; assay type: biochemical, yeast; set-up: made in house; remark: listed apart in the source
Description: Supplementary Table 3 The effects of increasing aromatic aldehyde concentration for the regioselectivity of Fms1 using (R)-MeSpd or (S)-MeSpd as a substrate.
The reactions were carried out in triplicate at pH 9.0 in 100 mM Glycine-NaOH at +25°C with the fixed 1 or 4 mM MeSpd supplemented with increasing concentration 50 or 500 µM of tested aldehyde. Recombinant Fms1 was 1.6 µg/reaction and the incubation time from 15 to 30 minutes.
Linearity of reaction was monitored by using T1/2 controls, i.e. samples that have been incubated for 7.5 to 15 min (half of the reaction time of an ordinary sample). E1 cleavage was monitored by HPLC by measuring Put formation and E2 cleavage by determining butane-1,3-diamine content.
Substrate (R)-MeSpd (S)-MeSpd […]

Fms1 [3] = molecular target: T1, Fms1; assay: Substrate kinetics with recombinant Fms1 (HPLC of reaction products); conditions: Fms1, text summary of Supplementary Table S2;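 note: recombinant polyamine oxidases incubated with substrate, product amines (putrescine, 1,3-diaminopropane or butane-1,3-diamine) quantified by HPLC after post-column o-phthalaldehyde derivatization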
human recombinant APAO [4] = molecular target: T2, human recombinant APAO (Homo sapiens, UniProt Q6QHF9); conditions: benzaldehyde Schiff base of MeSpd; cited from earlier work
T2 construct: made in house

Fms1 [5] = molecular target: T1, Fms1; assay: Fms1 cleavage of 1 mM Spd supplemented with aldehydes (E1/E2 regioselectivity); assay type: biochemical, yeast; set-up: made in house; conditions: for effect on cleavage site balance of Spd: Spd plus aldehyde; for E1 cleavage (Put) kcat / E2 cleavage (DAP) kcat / Ratio of E1/E2: fixed 1 mM Spd, aldehyde 25-1000 μM, pH 9.0, 25°C;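 for all read-outs here: recombinant yeast Fms1 reactions in Glycine-NaOH buffer, with products Put and DAP quantified by HPLC using post-column o-phthalaldehyde derivatization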
Description: HPLC with post-column o-phthalaldehyde-derivatization was used to determine the concentrations of the reaction products Put and 1,3-diaminopropane (DAP) or butane-1,3-diamine respectively as described in [30]. Fms1 activity was determined essentially as described for human recombinant APAO, but reactions were carried out in 100 mM Glycine-NaOH buffer at pH 9.0 in a water bath at +25°C [29, 30].

SMOX [6] = molecular target: T3, SMOX (Homo sapiens, UniProt Q9NWM0); assay: Substrate properties with human recombinant SMOX; assay type: biochemical; set-up: made in house
From the text: Thus, developing specific inhibitors of SMOX is of crucial importance. In addition, the use of specific substrates for SMOX and APAO would enable distinguishing between APAO and SMOX enzyme activities in vivo.

SMOX [7] = molecular target: T3, SMOX; assay: Inhibition of SMOX (Ki, peroxidase-coupled fluorescence, Spm as substrate)
Description: Reaction mixtures contained 40 units/ml horseradish peroxidase (Roche), 1 mM homovanillic acid in 100 mM Glycine-NaOH at pH 9.0 supplemented with 40 ng of SMOX. […] Dilutions of fresh H2O2 were used as standard.

human recombinant APAO [8] = molecular target: T2, human recombinant APAO; assay: Substrate kinetics with human recombinant APAO (HPLC of reaction products); assay type: biochemical; conditions: for Km / Vmax / kcat: 100 mM Glycine-NaOH pH 9.5, 5 mM DTT
[9] = aldehyde A12 50 µM, first of two lines (1 or 4 mM MeSpd, not stated which)
[10] = aldehyde A12 50 µM, second of two lines (1 or 4 mM MeSpd, not stated which)
[11] = aldehyde A12 500 µM, first of two lines (1 or 4 mM MeSpd, not stated which)
[12] = aldehyde A12 500 µM, second of two lines (1 or 4 mM MeSpd, not stated which)
[13] = aldehyde A13 50 µM, first of two lines (1 or 4 mM MeSpd, not stated which)
[14] = aldehyde A13 50 µM, second of two lines (1 or 4 mM MeSpd, not stated which)
[15] = aldehyde A13 500 µM, first of two lines (1 or 4 mM MeSpd, not stated which)
[16] = aldehyde A13 500 µM, second of two lines (1 or 4 mM MeSpd, not stated which)
[17] = Ki (best-fit value, noncompetitive inhibition), GraphPad Prism global fit, supplement
[18] = Ki, non-competitive fit, 25, 50 or 100 µM Spm, pH 9.0, 37°C

T3 sequence (Q9NWM0 whole entry): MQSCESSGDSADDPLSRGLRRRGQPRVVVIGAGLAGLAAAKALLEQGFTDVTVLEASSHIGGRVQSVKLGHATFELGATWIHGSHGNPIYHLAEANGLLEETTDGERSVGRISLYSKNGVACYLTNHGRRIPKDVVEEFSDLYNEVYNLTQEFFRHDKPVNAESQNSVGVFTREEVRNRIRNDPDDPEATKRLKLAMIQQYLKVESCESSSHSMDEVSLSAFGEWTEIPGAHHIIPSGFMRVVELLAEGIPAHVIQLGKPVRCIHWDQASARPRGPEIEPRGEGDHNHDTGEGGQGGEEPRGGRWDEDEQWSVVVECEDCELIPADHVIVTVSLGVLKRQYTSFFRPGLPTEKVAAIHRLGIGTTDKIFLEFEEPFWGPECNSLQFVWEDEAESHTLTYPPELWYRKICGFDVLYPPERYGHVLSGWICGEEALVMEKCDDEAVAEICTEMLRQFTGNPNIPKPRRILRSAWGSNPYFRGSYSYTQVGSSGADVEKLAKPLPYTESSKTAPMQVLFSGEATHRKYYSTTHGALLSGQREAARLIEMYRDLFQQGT
T1 sequence (P50264 whole entry): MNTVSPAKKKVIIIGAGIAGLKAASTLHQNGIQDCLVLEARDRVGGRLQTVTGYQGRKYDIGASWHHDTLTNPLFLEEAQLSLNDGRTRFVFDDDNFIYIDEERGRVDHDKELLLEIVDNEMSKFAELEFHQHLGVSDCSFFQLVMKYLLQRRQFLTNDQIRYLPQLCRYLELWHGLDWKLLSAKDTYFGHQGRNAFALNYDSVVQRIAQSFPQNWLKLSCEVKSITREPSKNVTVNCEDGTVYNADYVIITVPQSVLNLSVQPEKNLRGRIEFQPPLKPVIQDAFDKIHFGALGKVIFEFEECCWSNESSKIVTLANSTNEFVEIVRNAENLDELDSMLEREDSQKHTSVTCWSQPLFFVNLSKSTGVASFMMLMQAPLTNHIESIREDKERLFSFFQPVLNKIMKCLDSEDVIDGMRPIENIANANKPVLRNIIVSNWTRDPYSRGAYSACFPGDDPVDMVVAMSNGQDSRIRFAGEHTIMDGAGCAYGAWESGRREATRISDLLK
T2 sequence (Q6QHF9 whole entry): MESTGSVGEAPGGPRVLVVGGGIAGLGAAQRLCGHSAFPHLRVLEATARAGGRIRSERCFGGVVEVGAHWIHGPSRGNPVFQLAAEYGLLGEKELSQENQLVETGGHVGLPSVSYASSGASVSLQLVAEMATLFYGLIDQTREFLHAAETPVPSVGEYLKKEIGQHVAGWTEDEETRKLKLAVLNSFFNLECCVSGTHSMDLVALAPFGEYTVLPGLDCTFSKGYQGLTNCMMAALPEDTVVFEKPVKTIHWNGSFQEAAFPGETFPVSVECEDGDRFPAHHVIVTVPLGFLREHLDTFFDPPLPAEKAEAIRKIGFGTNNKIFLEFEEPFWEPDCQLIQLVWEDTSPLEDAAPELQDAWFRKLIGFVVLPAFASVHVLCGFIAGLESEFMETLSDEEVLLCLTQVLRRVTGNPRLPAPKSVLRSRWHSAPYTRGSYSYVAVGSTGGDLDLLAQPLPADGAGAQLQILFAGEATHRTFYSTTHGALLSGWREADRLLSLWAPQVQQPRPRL

## C[C@@H](N)CCNCCCCN [(R)-MeSpd, 1,8-diamino-5-azanonane]
Fms1 [1]; Without aldehyde, 1 mM MeSpd
  E1 cleavage velocity: 9.5 ± 0.1 nmol/mg/min
Fms1 [1]; [9]
  E1 cleavage velocity: 10.5 ± 1.1 nmol/mg/min
  E2 cleavage velocity: 33.7 ± 4.8 nmol/mg/min
Fms1 [1]; [10]
  E1 cleavage velocity: 14.0 ± 0.9 nmol/mg/min
  E2 cleavage velocity: 31.8 ± 4.3 nmol/mg/min
Fms1 [1]; [11]
  E1 cleavage velocity: 12.7 ± 1.6 nmol/mg/min
  E2 cleavage velocity: 186 ± 24 nmol/mg/min
Fms1 [1]; [12]
  E1 cleavage velocity: 14.4 ± 0.8 nmol/mg/min
  E2 cleavage velocity: 216 ± 31 nmol/mg/min
Fms1 [1]; [13]
  E2 cleavage velocity: 10.3 ± 3.1 nmol/mg/min
Fms1 [1]; [14]
  E1 cleavage velocity: 19.1 ± 0.4 nmol/mg/min
  E2 cleavage velocity: 9.6 ± 2.2 nmol/mg/min
Fms1 [1]; [15]
  E1 cleavage velocity: 72.8 ± 2.3 nmol/mg/min
  E2 cleavage velocity: 41.5 ± 3.4 nmol/mg/min
Fms1 [1]; [16]
  E1 cleavage velocity: 63.1 ± 1.0 nmol/mg/min
  E2 cleavage velocity: 39.5 ± 2.1 nmol/mg/min
Fms1 [2]; Without aldehyde, 1 mM MeSpd
  E2 cleavage velocity: 4.3 ± 0.9 nmol/mg/min
Fms1 [2]; Without aldehyde, 4 mM MeSpd
  E1 cleavage velocity: 12.5 ± 0.0 nmol/mg/min
  E2 cleavage velocity: 5.6 ± 0.4 nmol/mg/min
Fms1 [2]; [13]
  E1 cleavage velocity: 19.1 ± 1.0 nmol/mg/min
Fms1 [3]
  Km: > 500 µM
Human recombinant APAO [4]
  specificity constant ratio (R)/(S) of benzaldehyde Schiff base derivatives: eight

## C[C@H](N)CCNCCCCN [(S)-MeSpd, 1,8-diamino-5-azanonane]
Fms1 [1]; Without aldehyde, 1 mM MeSpd
  E1 cleavage velocity: 7.2 ± 0.2 nmol/mg/min
Fms1 [1]; [9]
  E1 cleavage velocity: 29 ± 1.0 nmol/mg/min
  E2 cleavage velocity: 20.2 ± 1.0 nmol/mg/min
Fms1 [1]; [10]
  E1 cleavage velocity: 31 ± 1.8 nmol/mg/min
  E2 cleavage velocity: 23.3 ± 2.0 nmol/mg/min
Fms1 [1]; [11]
  E1 cleavage velocity: 57 ± 1.1 nmol/mg/min
  E2 cleavage velocity: 36 ± 4.2 nmol/mg/min
Fms1 [1]; [12]
  E1 cleavage velocity: 62 ± 3 nmol/mg/min
  E2 cleavage velocity: 41 ± 2.5 nmol/mg/min
Fms1 [1]; [13]
  E2 cleavage velocity: 8.6 ± 1.8 nmol/mg/min
Fms1 [1]; [14]
  E1 cleavage velocity: 44.0 ± 1.2 nmol/mg/min
  E2 cleavage velocity: 10.0 ± 0.6 nmol/mg/min
Fms1 [1]; [15]
  E1 cleavage velocity: 66.1 ± 0.0 nmol/mg/min
  E2 cleavage velocity: 6.9 ± 0.7 nmol/mg/min
Fms1 [1]; [16]
  E1 cleavage velocity: 73.5 ± 0.4 nmol/mg/min
  E2 cleavage velocity: 7.4 ± 1.3 nmol/mg/min
Fms1 [2]; Without aldehyde, 1 mM MeSpd
  E2 cleavage velocity: 7.9 ± 1.1 nmol/mg/min
Fms1 [2]; Without aldehyde, 4 mM MeSpd
  E1 cleavage velocity: 9.6 ± 0.1 nmol/mg/min
  E2 cleavage velocity: 11.1 ± 1.8 nmol/mg/min
Fms1 [2]; [13]
  E1 cleavage velocity: 45.6 ± 2.6 nmol/mg/min
Fms1 [3]
  Km: > 500 µM

## COc1ccc(C=O)cc1 [A4]
Fms1 [5]
  effect on cleavage site balance of Spd: shifted the balance towards E2 cleavage site

## O=Cc1cccc(O)c1 [A6]
Fms1 [5]
  effect on cleavage site balance of Spd: shifted the balance towards E2 cleavage site

## O=Cc1ccccc1[N+](=O)[O-] [A7]
Fms1 [5]; Spd plus aldehyde vs Spd alone
  increase of the ratio of the cleavage pathways (E1/E2): 5 fold

## O=Cc1ccccn1 [A18]
Fms1 [5]
  effect on cleavage site balance of Spd: shifted the balance towards E2 cleavage site

## C[C@H](CCNCCCCN)NCc1ccccc1 [Bn-(R)-MeSpd]
SMOX [6]
  substrate of SMOX: not being substrates of SMOX
SMOX [7]; [17]
  Ki: 441 µM
SMOX [7]; [18]
  Ki: 441 ± 32 µM
Human recombinant APAO [8]
  Km: 2000 ± 100 nM
  Vmax: 0.15 ± 0.00 µmol/min/mg
  kcat: 0.14 ± 0.00 s⁻¹
Human recombinant APAO [8]; APAO, ratio of kcat/Km
  specificity constant ratio (R)-enantiomer/(S)-enantiomer: four

## C[C@@H](CCNCCCCN)NCc1ccccc1 [Bn-(S)-MeSpd]
SMOX [6]
  substrate of SMOX: not being substrates of SMOX
SMOX [7]; [17]
  Ki: 155 µM
SMOX [7]; [18]
  Ki: 155 ± 13 µM
Human recombinant APAO [8]
  Km: 1600 ± 600 nM
  Vmax: 0.03 ± 0.00 µmol/min/mg
  kcat: 0.03 ± 0.00 s⁻¹

## C[C@H](CCNCCCCN)NC(=O)c1ccccc1 [Bz-(R)-MeSpd]
SMOX [7]; [17]
  Ki: 589 µM
SMOX [7]; [18]
  Ki: 589 ± 58 µM
Human recombinant APAO [8]
  Km: 1200 ± 700 nM
  Vmax: 5.02 ± 0.74 µmol/min/mg
  kcat: 4.6 ± 0.7 s⁻¹

## C[C@@H](CCNCCCCN)NC(=O)c1ccccc1 [Bz-(S)-MeSpd]
SMOX [7]; [17]
  Ki: 846 µM
SMOX [7]; [18]
  Ki: 846 ± 82 µM
Human recombinant APAO [8]
  Km: 200 ± 200 nM
  Vmax: 0.03 ± 0.00 µmol/min/mg
  kcat: 0.03 ± 0.00 s⁻¹

## O=Cc1ccccc1O [C00002]
Fms1 [5]
  E1 cleavage (Put) kcat: 0.54 ± 0.01 s⁻¹
  E2 cleavage (DAP) kcat: 0.08 ± 0.00 s⁻¹
  Ratio of E1/E2: 5.2

## O=Cc1cccc(O)c1 [C00003]
Fms1 [5]
  E1 cleavage (Put) kcat: 0.31 ± 0.01 s⁻¹
  E2 cleavage (DAP) kcat: 0.47 ± 0.01 s⁻¹
  Ratio of E1/E2: 0.22

## O=Cc1ccc(O)cc1 [C00004]
Fms1 [5]
  E1 cleavage (Put) kcat: 0.11 ± 0.00 s⁻¹
  E2 cleavage (DAP) kcat: 0.03 ± 0.00 s⁻¹
  Ratio of E1/E2: 118

## O=Cc1ccncc1 [C00005]
Fms1 [5]
  E1 cleavage (Put) kcat: 7.4 ± 0.2 s⁻¹
  E2 cleavage (DAP) kcat: 0.19 ± 0.01 s⁻¹
  Ratio of E1/E2: 12.9

## O=Cc1cccnc1 [C00006]
Fms1 [5]
  E1 cleavage (Put) kcat: 5.5 ± 0.1 s⁻¹
  E2 cleavage (DAP) kcat: 0.48 ± 0.01 s⁻¹
  Ratio of E1/E2: 8.0
